This note sets out measurements from patent US20250195513A1, “DEGRADATION OF IRAK4 BY CONJUGATION OF IRAK4 INHIBITORS WITH E3 LIGASE LIGAND AND METHODS OF USE” (BeiGene, Ltd., priority 2022, published 2025).

Type in all cases: cell-based
For assay [1], the target named is T1, IRAK4 (Homo sapiens, UniProt Q9NWZ3).
T1 construct: endogenous in cells; host or cells: Karpas299
T1 sequence (Q9NWZ3 1-460): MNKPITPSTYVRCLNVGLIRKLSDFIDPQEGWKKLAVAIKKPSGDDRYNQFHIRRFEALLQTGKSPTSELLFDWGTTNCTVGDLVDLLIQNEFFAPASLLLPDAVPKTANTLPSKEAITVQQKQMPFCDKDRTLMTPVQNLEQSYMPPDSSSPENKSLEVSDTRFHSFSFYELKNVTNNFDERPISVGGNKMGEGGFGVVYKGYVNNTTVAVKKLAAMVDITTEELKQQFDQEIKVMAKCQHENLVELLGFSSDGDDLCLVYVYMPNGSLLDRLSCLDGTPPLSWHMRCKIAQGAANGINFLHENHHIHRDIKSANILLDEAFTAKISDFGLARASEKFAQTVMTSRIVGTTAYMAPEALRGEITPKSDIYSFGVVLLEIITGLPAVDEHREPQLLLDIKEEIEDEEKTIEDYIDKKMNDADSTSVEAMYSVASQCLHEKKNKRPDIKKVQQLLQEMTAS
Briefly: IRAK4 Degradation Assay (Karpas299, HTRF/TR-FRET). Conditions: Karpas-299 cells; for Dmax: maximum percentage of degradation. The procedure, abridged: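 Karpas299 cells at 0.2 million per well were exposed to serially diluted compounds for 24 h or 5 h, then lysed. IRAK4 remaining in lysates was quantified by HTRF (665/620 nm) after overnight antibody incubation at room temperature. Percent degradation was fitted to a four-parameter curve to give IC50 (DC50).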

For assay [2], the target named is T1, IRAK4. Briefly: IRAK4 Degradation Assay with Human Serum (Karpas299, HTRF/TR-FRET). The settings on record: Karpas-299 in human serum, 24 hrs treatment; for DC50: read-out: IRAK4 degradtion with human serum assay DC50; for Dmax: read-out: IRAK4 degradtion with human serum assay Dmax (%). Put shortly: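 Karpas299 cells in human AB serum (0.2 million/well) treated with serial compound dilutions for 24 h. After lysis, IRAK4 quantified by HTRF (overnight antibody incubation at room temperature, 665/620 nm read). Degradation percentage fitted to four-parameter curve to give DC50.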

The subject of assay [3] is TNF-α production in THP-1 cells. Briefly: TNF-α Production Assay in THP-1 Cells (LPS stimulated). Conditions: Homo sapiens, THP-1, 24 h; for Emax: maximum inhibition, read-out: TNF-α (THP-1) 24 h IMax. Here is the method: THP-1 cells maintained in RPMI 1640 medium (Thermo Scientific) supplemented with 10% FBS (Thermo Scientific), 100 units/mL penicillin and 0.1 mg/mL streptomycin (Thermo Scientific) were seeded into 96-well plates at the density of 0.2 million cells per well and then treated with compounds for 24 h. Lipopolysaccharide was subsequently added at the final concentration of 1 μg/mL for 24 h. Culture supernatant was collected for measurement of TNF-α concentration by a TR-FRET-based method (Degorce, François, et al. Current chemical genomics. 2009, 3: 22) as described by the manufacturer manual (Cisbio). FRET signals were measured using a PHERAstar FSX reader (BMG Labtech).

The mark [4] stands for this setting: 5 h treatment, read-out: IRAK4 in Karpas-299 (5 h) Dmax (%).
[5] abbreviates: 5 h treatment, read-out: IRAK4 in Karpas-299 (5 h) DC50.
The mark [6] stands for this setting: 24 h treatment, read-out: IRAK4 in Karpas-299 (24 h) Dmax (%).
The mark [7] stands for this setting: 24 h treatment, read-out: IRAK4 in Karpas-299 (24 h) DC50.

As for `CC(C)(O)c1cc2nn([C@H]3CC[C@H](N4CCN(CCNc5cc(F)c([C@H]6CCC(=O)NC6=O)c(F)c5)CC4)CC3)cc2cc1NC(=O)c1ccc2cc(C#N)cnn12` [Example 194, 3-cyano-N-(2-((1R,4r)-4-(4-(2-((4-((R)-2,6-dioxopiperidin-3-yl)-3,5-difluorophenyl)amino)ethyl)piperazin-1-yl)cyclohexyl)-6-(2-hydroxypropan-2-yl)-2H-indazol-5-yl)pyrrolo[1,2-b]pyridazine-7-carboxamide], the Dmax turned out to be 93% at IRAK4 [1] (setting [4]), 98% on IRAK4 [1] (setting [6]) and 96% on IRAK4 [2]. The DC50 amounted to 1.6 nM on IRAK4 [1] (setting [5]), 1.1 nM on IRAK4 [1] (setting [7]) and 6.2 nM at IRAK4 [2]. In assay [3], this compound displayed an IC50 of 30 nM. The Emax in assay [3] worked out at 53%.
`CC(C)(O)c1cc2nn([C@H]3CC[C@H](N4CCN(C(=O)CNc5cc(F)c([C@H]6CCC(=O)NC6=O)c(F)c5)CC4)CC3)cc2cc1NC(=O)c1ccc2cc(C#N)cnn12` [Example 193, 3-cyano-N-(2-((1R,4r)-4-(4-((4-((R)-2,6-dioxopiperidin-3-yl)-3,5-difluorophenyl)glycyl)piperazin-1-yl)cyclohexyl)-6-(2-hydroxypropan-2-yl)-2H-indazol-5-yl)pyrrolo[1,2-b]pyridazine-7-carboxamide]: the Dmax on IRAK4 [1] (setting [6]) is 97%. Moreover, the DC50 on IRAK4 [1] (setting [7]) came out at 0.4 nM. Further, at IRAK4 [2], the DC50 is 5.8 nM and the Dmax was found to be 102%. For the same compound, in assay [3], 20 nM corresponded to half-maximal inhibition (IC50) and the Emax came out at 58%.
Turning to `C[C@@H]1CN([C@H]2CC[C@H](n3cc4cc(NC(=O)c5ccc6cc(C#N)cnn56)c(C(C)(C)O)cc4n3)CC2)CCN1C(=O)C1CN(c2cc(F)c([C@H]3CCC(=O)NC3=O)c(F)c2)C1` [Example 309, 3-cyano-N-(2-((1R,4r)-4-((R)-4-(1-(4-((R)-2,6-dioxopiperidin-3-yl)-3,5-difluorophenyl)azetidine-3-carbonyl)-3-methylpiperazin-1-yl)cyclohexyl)-6-(2-hydroxypropan-2-yl)-2H-indazol-5-yl)pyrrolo[1,2-b]pyridazine-7-carboxamide], the Dmax at IRAK4 [1] (setting [6]) worked out at 97%; on IRAK4 [2], 100%. Further, the DC50 is 0.4 nM on IRAK4 [1] (setting [7]) and 14 nM at IRAK4 [2]. The IC50 in assay [3] was 31 nM. Besides, the Emax in assay [3] came out at 90%.
With `COC[C@H]1CN([C@H]2CC[C@H](n3cc4cc(NC(=O)c5ccc6cc(C#N)cnn56)c(C(C)(C)O)cc4n3)CC2)CCN1C(=O)C1CN(c2cc(F)c(N3CCC(=O)NC3=O)c(F)c2)C1` [Example 315, 3-cyano-N-(2-((1R,4r)-4-((R)-4-(1-(4-(2,4-dioxotetrahydropyrimidin-1(2H)-yl)-3,5-difluorophenyl)azetidine-3-carbonyl)-3-(methoxymethyl)piperazin-1-yl)cyclohexyl)-6-(2-hydroxypropan-2-yl)-2H-indazol-5-yl)pyrrolo[1,2-b]pyridazine-7-carboxamide], the results for the Dmax at IRAK4 [1] (setting [4]), on IRAK4 [1] (setting [6]) and on IRAK4 [2] were 97%, 95% and 99%, respectively. The 50% degradation concentration (DC50) on IRAK4 [1] (setting [5]) was 0.9 nM; at IRAK4 [1] (setting [7]), 0.6 nM; on IRAK4 [2], 18 nM. The compound also showed an IC50 in assay [3] of 22 nM. In addition, the Emax in assay [3] stood at 93%.
Regarding `COc1cc(N2CC(C(=O)N3CCN([C@H]4CC[C@H](n5cc6cc(NC(=O)c7ccc8cc(C#N)cnn78)c7c(c6n5)OCO7)CC4)CC3)C2)ccc1[C@H]1CCC(=O)NC1=O` [Example 356], the Dmax on IRAK4 [1] (setting [6]) is 98%. Besides, the DC50 on IRAK4 [1] (setting [7]) was 1.3 nM. In addition, on IRAK4 [2], the DC50 was 14 nM and the Dmax stood at 102%. Besides, in assay [3], the midpoint of inhibition, the IC50, lay at 12 nM and the Emax stood at 90%.
As to `COC[C@H]1CN([C@H]2CC[C@H](n3cc4cc(NC(=O)c5ccc6cc(C#N)cnn56)c(C(C)(C)O)cc4n3)CC2)CCN1CC1CN(c2cc(F)c([C@H]3CCC(=O)NC3=O)c(F)c2)C1` [Example 367, 3-cyano-N-(2-((1R,4r)-4-((R)-4-((1-(4-((R)-2,6-dioxopiperidin-3-yl)-3,5-difluorophenyl)azetidin-3-yl)methyl)-3-(methoxymethyl)piperazin-1-yl)cyclohexyl)-6-(2-hydroxypropan-2-yl)-2H-indazol-5-yl)pyrrolo[1,2-b]pyridazine-7-carboxamide], the values for the Dmax on IRAK4 [1] (setting [4]), at IRAK4 [1] (setting [6]) and on IRAK4 [2] were 97%, 99% and 96%, respectively. Further, the DC50 was determined as 3.1 nM on IRAK4 [1] (setting [5]), 0.7 nM on IRAK4 [1] (setting [7]) and 12 nM at IRAK4 [2]. In assay [3], this compound yielded an IC50 of 11 nM. In addition, in assay [3], the Emax turned out to be 96%.
Take `CC(C)(O)c1cc2nn([C@H]3CC[C@H](N4CCN(C(=O)[C@@H]5CCN(c6cc(F)c([C@H]7CCC(=O)NC7=O)c(F)c6)C5)CC4)CC3)cc2cc1NC(=O)c1ccc2cc(C#N)cnn12` [Example 181, 3-cyano-N-(2-((1R,4r)-4-(4-((R)-1-(4-((R)-2,6-dioxopiperidin-3-yl)-3,5-difluorophenyl)pyrrolidine-3-carbonyl)piperazin-1-yl)cyclohexyl)-6-(2-hydroxypropan-2-yl)-2H-indazol-5-yl)pyrrolo[1,2-b]pyridazine-7-carboxamide]: the Dmax at IRAK4 [1] (setting [4]) worked out at 97%; at IRAK4 [1] (setting [6]) it was 97%; on IRAK4 [2], 101%. Besides, the results for the DC50 on IRAK4 [1] (setting [5]), on IRAK4 [1] (setting [7]) and on IRAK4 [2] were 2 nM, 0.4 nM and 11 nM, respectively. The IC50 in assay [3] was determined as 30 nM. Besides, the Emax in assay [3] was 69%.
For the compound `CC(C)(O)c1cc2nn(C3CCN([C@H]4CCN(CCc5cc(F)c([C@H]6CCC(=O)NC6=O)c(F)c5)CC4(F)F)CC3)cc2cc1NC(=O)c1ccc2cc(C#N)cnn12` [Example 339, 3-cyano-N-(2-((S)-1′-(4-((R)-2,6-dioxopiperidin-3-yl)-3,5-difluorophenethyl)-3′,3′-difluoro-[1,4′-bipiperidin]-4-yl)-6-(2-hydroxypropan-2-yl)-2H-indazol-5-yl)pyrrolo[1,2-b]pyridazine-7-carboxamide], the results for the Dmax on IRAK4 [1] (setting [6]) and at IRAK4 [2] were 95% and 99%, respectively. For the same compound, the values for the DC50 on IRAK4 [1] (setting [7]) and on IRAK4 [2] were 2.5 nM and 20 nM, respectively. 122 nM corresponded to half-maximal inhibition in assay [3] (IC50). Besides, in assay [3], the Emax came to 67%.
For `CC(C)(O)c1cc2nn(C34CC(N5CCN(CC6CN(c7cc(F)c(N8CCC(=O)NC8=O)c(F)c7)C6)CC5)(C3)C4)cc2cc1NC(=O)c1ccc2cc(C#N)cnn12` [Example 354, 3-cyano-N-(2-(3-(4-((1-(4-(2,4-dioxotetrahydropyrimidin-1(2H)-yl)-3,5-difluorophenyl)azetidin-3-yl)methyl)piperazin-1-yl)bicyclo[1.1.1]pentan-1-yl)-6-(2-hydroxypropan-2-yl)-2H-indazol-5-yl)pyrrolo[1,2-b]pyridazine-7-carboxamide], at IRAK4 [1] (setting [6]), the Dmax was 98%. Also, on IRAK4 [1] (setting [7]), the DC50 came to 2.4 nM. Moreover, at IRAK4 [2], the DC50 was 10 nM and the Dmax stood at 93%. In addition, in assay [3], half-maximal inhibition (IC50) was put at 44 nM and the Emax was 96%.
On to `COC[C@@H]1CN([C@H]2CC[C@H](n3cc4cc(NC(=O)c5ccc6cc(C#N)cnn56)c(C(C)(C)O)cc4n3)CC2)CCN1C1CCN(c2cc(F)c([C@H]3CCC(=O)NC3=O)c(F)c2)CC1` [Example 319], for which the Dmax stood at 95% at IRAK4 [1] (setting [4]), 98% on IRAK4 [1] (setting [6]) and 98% on IRAK4 [2]. Also, the values for the DC50 at IRAK4 [1] (setting [5]), on IRAK4 [1] (setting [7]) and at IRAK4 [2] were 1.2 nM, 2 nM and 6.7 nM, respectively. Further, in assay [3], the IC50 was determined as 39 nM. Besides, the Emax in assay [3] is 90%.
